Assay results: patent publication EP0545103A1, “Insecticidal, acaricidal and molluscicidal 1-(substituted) thioalkylpyrroles” (priority 1991, dated 1993)

Tests used:
Assay type in all cases: in vivo
Parameters in all cases: key: 0: no effect; 10-25% kill; 26-35% kill; 36-45% kill; 46-55% kill; 56-65% kill; 66-75% kill; 76-85% kill; 86-99% kill; 9: 100% kill
[1] = tested on: Tetranychus urticae (OP-resistant strain), 2-spotted spider mite; test: 2-spotted spider mite test, dipped infested limabean plants
How it was run: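 Mite-infested Sieva limabean plants (OP-resistant strain, ~100 mites per leaf, transferred ~2 h earlier) dipped 3 s with agitation in compound solution (10,000 ppm stock in 35% acetone/water, diluted with water). Mortality counted at 2 days; egg and nymph mortality assessed at 5 days; rated on a scale.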

[2] = tested on: Spodoptera eridania, 3rd instar larvae, southern armyworm; test: Southern armyworm systemic uptake (stem systemic) test; details: cut stem in emulsion 3 days
[3] = tested on: Spodoptera eridania, 3rd instar larvae, southern armyworm; test: Southern armyworm 3rd instar test, dipped limabean leaf; details: for ARMYWORM Day 3: rating at 3 days; for ARMYWORM Day 5: rating at 5 days
How it was run: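 Compound dissolved in 35% acetone/water at 10,000 ppm stock, diluted with water. Sieva limabean leaves dipped 3 s, dried, and exposed to ten 3rd instar larvae on damp filter paper. Mortality, reduced feeding and molting interference scored at 3 and 5 days on a rating scale.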

[4] = tested on: Aphis fabae, mixed instar, bean aphid; test: Bean aphid spray test on nasturtium; details: 100 ppm
How it was run: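 Compound dissolved at 10,000 ppm in 35% acetone/water, then water-diluted. Nasturtium plants (~5 cm) infested with 100-200 aphids one day before spraying to full coverage on a turntable; mortality estimated after 2 days on a rating scale.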

[5] = 300 ppm, mortality rating after 2 days
[6] = spray, mortality rating after 2 days
[7] = 300 ppm, adult mites, rating scale 0-9
[8] = 300 ppm, mite eggs, rating scale 0-9
[9] = 300 ppm, mite nymphs, rating scale 0-9
[10] = 10 ppm, mite eggs, rating scale 0-9
[11] = 10 ppm, mite nymphs, rating scale 0-9
[12] = 100 ppm, mite eggs, rating scale 0-9
[13] = 10 ppm, mortality rating after 2 days

CSCn1c(-c2ccc(Cl)cc2)c(C#N)c(Br)c1C(F)(F)F [Example 25]
7 (76-85% kill): OP-RESISTANT MITES Adult [1, 5]
0: OP-RESISTANT MITES Egg ([1]; 300 ppm, rating after 5 days) | OP-RESISTANT MITES Nymph ([1]; 300 ppm, rating after 5 days) | ARMYWORM Stem Sys [2] | ARMYWORM Day 3 ([3]; 10 ppm) | ARMYWORM Day 5 ([3]; 10 ppm) | APHIDS [4, 6]
9 (100% kill): ARMYWORM Day 3 ([3]; 100 ppm) | ARMYWORM Day 5 ([3]; 100 ppm) | ARMYWORM Day 3 ([3]; 1000 ppm) | ARMYWORM Day 5 ([3]; 1000 ppm)

CN=C(NC)SCn1c(Cl)c(C#N)c(Cl)c1-c1ccc(Cl)c(Cl)c1 [Example 19]
9 (100% kill): ARMYWORM Day 3 ([3]; 100 ppm) | ARMYWORM Day 5 ([3]; 100 ppm) | ARMYWORM Day 3 ([3]; 1000 ppm) | ARMYWORM Day 5 ([3]; 1000 ppm)
5 (56-65% kill): OP-RESISTANT MITES Adult [1, 7]
0: OP-RESISTANT MITES Egg [1, 8] | OP-RESISTANT MITES Nymph [1, 9] | ARMYWORM Stem Sys [2] | ARMYWORM Day 3 ([3]; 10 ppm) | ARMYWORM Day 5 ([3]; 10 ppm) | APHIDS ([4]; rating scale 0-9)

N=C(N)SCn1c(-c2ccc(Cl)c(Cl)c2)c(Br)c(C(F)(F)F)c1C(F)(F)F [Example 18]
9 (100% kill): OP-RESISTANT MITES Adult ([1]; 100 ppm, adult mites, rating scale 0-9) | OP-RESISTANT MITES Adult [1, 7] | ARMYWORM Day 3 ([3]; 100 ppm) | ARMYWORM Day 5 ([3]; 100 ppm) | ARMYWORM Day 3 ([3]; 1000 ppm) | ARMYWORM Day 5 ([3]; 1000 ppm)
0: OP-RESISTANT MITES Adult ([1]; 10 ppm, adult mites, rating scale 0-9) | OP-RESISTANT MITES Egg [1, 10] | OP-RESISTANT MITES Nymph [1, 11] | OP-RESISTANT MITES Egg [1, 12] | OP-RESISTANT MITES Nymph ([1]; 100 ppm, mite nymphs, rating scale 0-9) | OP-RESISTANT MITES Egg [1, 8] | OP-RESISTANT MITES Nymph [1, 9] | ARMYWORM Stem Sys [2] | ARMYWORM Day 3 ([3]; 10 ppm) | ARMYWORM Day 5 ([3]; 10 ppm) | APHIDS ([4]; rating scale 0-9)

CN(C)C(=S)SCn1c(-c2ccc(Cl)cc2)c(C#N)c(Cl)c1C(F)(F)F [Example 21]
9 (100% kill): OP-RESISTANT MITES Adult [1, 13] | OP-RESISTANT MITES Adult ([1]; 100 ppm, mortality rating after 2 days) | OP-RESISTANT MITES Adult [1, 5] | OP-RESISTANT MITES Nymph ([1]; 300 ppm, rating after 5 days) | ARMYWORM Day 3 ([3]; 10 ppm) | ARMYWORM Day 5 ([3]; 10 ppm) | ARMYWORM Day 3 ([3]; 100 ppm) | ARMYWORM Day 5 ([3]; 100 ppm) | ARMYWORM Day 3 ([3]; 1000 ppm) | ARMYWORM Day 5 ([3]; 1000 ppm)
8 (86-99% kill): OP-RESISTANT MITES Egg ([1]; 100 ppm, rating after 5 days)
0: OP-RESISTANT MITES Egg ([1]; 10 ppm, rating after 5 days) | OP-RESISTANT MITES Nymph ([1]; 10 ppm, rating after 5 days) | OP-RESISTANT MITES Nymph ([1]; 100 ppm, rating after 5 days) | OP-RESISTANT MITES Egg ([1]; 300 ppm, rating after 5 days) | ARMYWORM Stem Sys [2] | APHIDS [4, 6]

N#Cc1c(Cl)c(C(F)(F)F)n(CSC2=NCCN2)c1-c1ccc(Cl)cc1 [Example 4]
9 (100% kill): OP-RESISTANT MITES Egg ([1]; 300 ppm, rating after 5 days) | ARMYWORM Day 3 ([3]; 10 ppm) | ARMYWORM Day 5 ([3]; 10 ppm) | ARMYWORM Day 3 ([3]; 100 ppm) | ARMYWORM Day 5 ([3]; 100 ppm) | ARMYWORM Day 3 ([3]; 1000 ppm) | ARMYWORM Day 5 ([3]; 1000 ppm)
0: OP-RESISTANT MITES Adult [1, 13] | OP-RESISTANT MITES Egg ([1]; 10 ppm, rating after 5 days) | OP-RESISTANT MITES Nymph ([1]; 10 ppm, rating after 5 days) | OP-RESISTANT MITES Egg ([1]; 100 ppm, rating after 5 days) | OP-RESISTANT MITES Nymph ([1]; 100 ppm, rating after 5 days) | ARMYWORM Stem Sys [2] | APHIDS [4, 6]

CCOC(=S)SCn1c(Cl)c(Cl)c(C#N)c1-c1ccc(Cl)c(Cl)c1 [Example 28]
3 (36-45% kill): OP-RESISTANT MITES Nymph [1, 11]
9 (100% kill): OP-RESISTANT MITES Egg [1, 12]
0: OP-RESISTANT MITES Egg [1, 10] | OP-RESISTANT MITES Egg [1, 8] | OP-RESISTANT MITES Nymph [1, 9] | ARMYWORM Stem Sys [2] | APHIDS ([4]; rating scale 0-9)

CC1(C)CN=C(SCn2c(-c3ccc(Cl)cc3)c(C#N)c(Br)c2C(F)(F)F)NC1 [Example 10]
0: OP-RESISTANT MITES Adult [1, 7] | OP-RESISTANT MITES Egg [1, 8] | OP-RESISTANT MITES Nymph [1, 9] | ARMYWORM Stem Sys [2] | ARMYWORM Day 3 ([3]; 10 ppm) | ARMYWORM Day 5 ([3]; 10 ppm) | APHIDS ([4]; rating scale 0-9)
9 (100% kill): ARMYWORM Day 3 ([3]; 100 ppm) | ARMYWORM Day 5 ([3]; 100 ppm) | ARMYWORM Day 3 ([3]; 1000 ppm) | ARMYWORM Day 5 ([3]; 1000 ppm)
